The values below come from publication PMC8405639, “2-Carba-lysophosphatidic acid is a novel β-lysophosphatidic acid analogue with high potential for lysophosphatidic acid receptor activation and autotaxin inhibition” (Scientific Reports, 2021).

Data set [1] deals with extracellular signal-regulated kinase (ERK) phosphorylation. As to the kind of experiment: Western blot analysis of phosphorylated ERK in HeLa cells. Format: cell-based. To be noted: HeLa cells, 10 µM, 5 min, 37 °C, western blot. How it is done: Figure 3 Effects of 2-carba-lysophosphatidic acid (2carbaLPA) on the phosphorylation of the extracellular signal-regulated kinase (ERK) protein. HeLa cells were preincubated with 10 µM Ki16425 for 30 min at 37 °C and then incubated with 10 µM 2carbaLPA, lysophosphatidic acid (LPA) 18:1, or vehicle for 5 min at 37 °C. Protein levels of phosphorylated ERK, total ERK, and α-tubulin were determined by western blot analysis. The full-length blots are shown in the Supplementary Fig. S2.
HeLa cells were obtained from RIKEN RBC Cell Bank (Tsukuba, Japan). […] Cells were harvested using 0.125 M Tris–HCl (pH 6.8) supplemented with 4% sodium dodecyl sulphate (SDS), 20% glycerol, 10% 2-mercaptoethanol, and 0.01% bromophenol blue. Proteins were separated by SDS–polyacrylamide gel electrophoresis, and the proteins were transferred onto an Immobilon-P Transfer Membrane (Millipore, Burlington, MA, USA). The membrane was incubated with primary antibodies: anti-phospho-ERK (pERK), anti-ERK, and anti-tubulin (all at 1:1,000 dilution, Cell Signaling Technology, Danvers, MA, USA). Next, after washing, the membrane was treated with horseradish peroxidase-conjugated anti-rabbit IgG (1:1000 dilution; Cell Signaling Technology). Immunodetection was performed using an enhanced chemiluminescence system (EzWestLumi plus, ATTO Corporation, Tokyo, Japan) and ImageQuant LAS 4000 (GE healthcare, Buckinghamshire, UK).

The target in the next data set is T1, hLPA1 (Homo sapiens, UniProt Q92633).
T1 construct: expressed in transfected cells; host or cells: 293A cells
T1 sequence (Q92633 whole entry): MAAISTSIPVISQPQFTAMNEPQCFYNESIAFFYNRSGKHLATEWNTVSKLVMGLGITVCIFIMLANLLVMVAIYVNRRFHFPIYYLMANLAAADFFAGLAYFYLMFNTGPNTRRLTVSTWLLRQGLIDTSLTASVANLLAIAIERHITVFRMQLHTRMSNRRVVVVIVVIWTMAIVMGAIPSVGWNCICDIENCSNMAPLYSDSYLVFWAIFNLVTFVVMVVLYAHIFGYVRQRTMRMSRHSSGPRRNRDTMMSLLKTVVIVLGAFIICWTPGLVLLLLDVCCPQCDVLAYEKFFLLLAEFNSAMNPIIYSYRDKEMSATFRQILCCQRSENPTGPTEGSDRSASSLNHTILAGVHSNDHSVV
As to the kind of experiment: TGFα-shedding assay, LPA1. Format: cell-based. Conditions: 293A cells, AP-TGFα release; for EC50: 1 h; for Emax: read-out: Emax ± SEM hLPA1 (converted). How it is done: Figure 4 Agonistic activity of 2-carba-lysophosphatidic acid (2carbaLPA) and cyclic phosphatidic acid (cPA) analogues toward six lysophosphatidic acid (LPA) receptors. 293A cells expressing LPA receptors were stimulated with the indicated concentration of LPA, 2carbaLPA, and cPA analogues. Receptor-specific alkaline phosphatase-tagged transforming growth factor-α release was calculated by subtracting the responses in the empty vector-transfected cells from those in the receptor-expressing cells. Data are represented as standard error of the mean of three independent replicates.
(§1) 293A cells (Life Technologies, Tokyo, Japan) were cultured in DMEM (Nissui Pharmaceutical, Tokyo, Japan) supplemented with 10% foetal calf serum (Gibco, Waltham, MA, USA) in an incubator at 37 °C and 5% CO2. This assay was conducted according to a modified version of a method described previously. To improve signal detection, cells for the analysis of LPA1, LPA2, LPA4, and LPA5 were transfected with Gα-chimeric proteins, whereas those for LPA4, LPA5, LPA6 analysis were treated with the LPA1–3 antagonist Ki16425. The cells were co-transfected with vectors-expressing human LPA1–6, alkaline phosphatase-tagged TGFα (AP-TGFα). As negative controls, cells transfected with an empty vector instead of the receptor-expressing vector were used. After 24 h, the cells were resuspended in Hank’s balanced salt solution (HBSS), seeded in 96-well plates, and stimulated with cPA analogues administered at tenfold concentration of the final concentration. The cPA analogues were diluted with HBSS, 0.01% protease and fatty acid-free BSA (SERVA Electrophoresis GmbH, Heidelberg, Germany). Cells for LPA4, LPA5, and LPA6 analysis were treated with Ki16425 (final concentration: 10 μM), 5 min before treatment with the cPA analogues. After incubation for 1 h at 37 °C, 80 µL of the supernatant was transferred to fresh 96-well plates. An equal volume of 1 mM p-NPP solution [120 mM Tris–HCl (pH 9.5), 40 mM NaCl, and 10 mM MgCl2] was added to both the supernatant and the cells. Alkaline phosphatase activity was calculated by measuring absorbance at 405 nm using the Cytation 3 plate reader (BioTek, Winooski, VT, USA).

The next data set deals with T2, hLPA2 (Homo sapiens, UniProt Q9HBW0).
T2 construct: expressed in transfected cells; host or cells: 293A cells
T2 sequence (Q9HBW0 whole entry): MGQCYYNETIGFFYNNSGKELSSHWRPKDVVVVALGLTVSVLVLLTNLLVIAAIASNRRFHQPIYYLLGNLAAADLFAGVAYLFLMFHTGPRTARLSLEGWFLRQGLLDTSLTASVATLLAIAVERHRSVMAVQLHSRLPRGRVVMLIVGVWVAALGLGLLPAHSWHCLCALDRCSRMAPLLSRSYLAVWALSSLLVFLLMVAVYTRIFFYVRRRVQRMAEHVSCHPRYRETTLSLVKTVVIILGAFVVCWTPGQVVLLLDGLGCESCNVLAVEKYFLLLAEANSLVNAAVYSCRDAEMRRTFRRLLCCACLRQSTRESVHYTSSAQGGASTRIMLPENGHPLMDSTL
As to the kind of experiment: TGFα-shedding assay, LPA2. To be noted: 293A cells, AP-TGFα release; for EC50: 1 h; for Emax: read-out: Emax ± SEM hLPA2 (converted). Format: cell-based. On the procedure:
293A cells expressing LPA receptors were stimulated with the indicated concentration of LPA, 2carbaLPA, and cPA analogues. Receptor-specific alkaline phosphatase-tagged transforming growth factor-α release was calculated by subtracting the responses in the empty vector-transfected cells from those in the receptor-expressing cells. Data are represented as standard error of the mean of three independent replicates.
as §1, with “To improve signal detection, cells for the analysis of LPA1, LPA2, LPA4, and LPA5 were transfected with Gα-chimeric proteins, whereas those for LPA4, LPA5, LPA6 analysis were treated with the LPA1–3 antagonist Ki16425.” left out

On the set-up of data set [2]: method as in PMID 32298781. Conditions: acidic conditions ref 16; cited from earlier work.
The subject of the next data set is LPA4. Conditions: Ca2+ mobilization, RH7777 and CHO cells, less than 2 min incubation ref 17; cited from earlier work. A general note: Calcium flux is commonly read through the fluorescence of an indicator in the cells.
A short description of data set [3]: cPA analogue stability in the 293A cell medium. Format: in vitro ADME. To be noted: 10 µM, 37 °C, 293A (HEK) cell medium. How it is done:
Supplementary Figure S3. Cyclic phosphatidic acid (cPA) analogue stability in the HEK cell medium. Each cPA analogue (final concentration: 10 µM) was incubated with the HEK cell medium for 1 h at 37 °C. The remaining cPA analogue was quantified using liquid chromatography with tandem mass spectrometry (LC-QqQ) and calculated based on the percentage (%) ratio of the final concentration after incubation to the initial concentration. Data are represented as mean ± standard deviation (n = 3 samples).
293A cells were prepared in Hank’s balanced salt solution (HBSS) in 96-well plates. […] After incubation for 1 h at 37 ℃, 80 µL of the supernatant was collected and mixed with 320 µL of acidic methanol, including LPA 17:0 and cPA 17:0 (final concentration: 0.2 µM each; Avanti Polar Lipids, Alabaster, AL, USA).

A word on the EC50: it is the concentration at which the effect is half-maximal. Low values mean a more potent agent, high ones a less potent agent. As a reminder, the Emax is the size of the effect at its maximum, as opposed to the concentration needed.

For the molecule `CCCCCCCC/C=C\CCCCCCCC(=O)OCC(CO)CP(=O)(O)O` (centres unmarked) [2carbaLPA 18:1, 2-carba-lysophosphatidic acid], in data set [1], the “ERK phosphorylation (activation)” value is “activated ERK”. Further, at hLPA1, the EC50 is 54.8 nM and the maximum response (Emax) was 27%. Also, at hLPA2, the EC50 came out at 256 nM and the Emax is 35.8%.
`CCCCCCCC/C=C\CCCCCCCC(=O)OCC1COP(=O)(O)C1` (centres unmarked) [2ccPA 18:1, 2-carba-cyclic phosphatidic acid]: at hLPA1, the response was half-maximal at 997 nM (EC50) and the maximum response (Emax) was 20.6%. Also, the “Degradation under acidic conditions” value in data set [2] is recorded as “degraded under acidic conditions”. The 50% effective concentration (EC50) at hLPA2 (bound) is above 3000 nM.
`CCCCCCCC/C=C\CCCCCCCC(=O)OC[C@@H](O)CCP(=O)(O)O` [3carba LPA 18:1, 3-carba-lysophosphatidic acid]: in the data set with LPA4, the “Activity relative to LPA (times weaker), LPA4” value is recorded as “more than 10 times”. Also, the “Stability during 1 h” value in data set [3] is on record as “mostly stable”. Further, at hLPA1, the EC50 was 11 nM and the Emax is 26.9%. In addition, on hLPA2, the 50% effective concentration (EC50) was found to be 28.3 nM and the maximum response (Emax) was 30.7%.
Take `CCCCCCCC/C=C\CCCCCCCC(=O)OC[C@@H]1CCP(=O)(O)O1` [3ccPA 18:1, 3-carba-cyclic phosphatidic acid]: at hLPA1, the EC50 amounted to 370 nM and the maximal response (Emax) is 26.9%. At hLPA2, the concentration for a half-maximal effect (EC50) was 2600 nM and the maximal effect (Emax) is 53.2%.
For `CCCCCCCC/C=C\CCCCCCCC(=O)OC[C@@H]1COP(=O)(O)O1` [cPA 18:1, 1-Oleoyl-cPA], in that order: 460 nM, 24.1%, 1070 nM and 35.9%.
